Results from patent US10065990B2, “Cyclic peptide compound, and preparation method, pharmaceutical composition and use thereof” (HANGZHOU GUANYU BIO-MEDICAL CO., LTD, priority 2013, dated 2018).
Read-outs that look alike come from different tables or passages of the source.

Legend:
[1] = target: HDAC2 (Homo sapiens, UniProt Q92769); assay: HDAC biochemical activity measurement (fluorescent substrate deacetylation);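 note: HDAC2 enzyme with an acetyl-lysine fluorescent substrate, then developer added, fluorescence read at excitation 360 nm and emission 460 nm, inhibition measured across several compound concentrations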; settings: 37° C. 30 minutes
[2] = target: T1, HDAC7 (Homo sapiens, UniProt Q8WUI4); assay: as above; settings: HDAC7; 37° C. 30 minutes;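 note: fluorogenic deacetylation assay using acetyl-lysine substrate at 20 µM, enzyme and compound incubated 30 min at 37 °C, then developer added, fluorescence read at 360/460 nm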
T1 sequence (Q8WUI4 1-952): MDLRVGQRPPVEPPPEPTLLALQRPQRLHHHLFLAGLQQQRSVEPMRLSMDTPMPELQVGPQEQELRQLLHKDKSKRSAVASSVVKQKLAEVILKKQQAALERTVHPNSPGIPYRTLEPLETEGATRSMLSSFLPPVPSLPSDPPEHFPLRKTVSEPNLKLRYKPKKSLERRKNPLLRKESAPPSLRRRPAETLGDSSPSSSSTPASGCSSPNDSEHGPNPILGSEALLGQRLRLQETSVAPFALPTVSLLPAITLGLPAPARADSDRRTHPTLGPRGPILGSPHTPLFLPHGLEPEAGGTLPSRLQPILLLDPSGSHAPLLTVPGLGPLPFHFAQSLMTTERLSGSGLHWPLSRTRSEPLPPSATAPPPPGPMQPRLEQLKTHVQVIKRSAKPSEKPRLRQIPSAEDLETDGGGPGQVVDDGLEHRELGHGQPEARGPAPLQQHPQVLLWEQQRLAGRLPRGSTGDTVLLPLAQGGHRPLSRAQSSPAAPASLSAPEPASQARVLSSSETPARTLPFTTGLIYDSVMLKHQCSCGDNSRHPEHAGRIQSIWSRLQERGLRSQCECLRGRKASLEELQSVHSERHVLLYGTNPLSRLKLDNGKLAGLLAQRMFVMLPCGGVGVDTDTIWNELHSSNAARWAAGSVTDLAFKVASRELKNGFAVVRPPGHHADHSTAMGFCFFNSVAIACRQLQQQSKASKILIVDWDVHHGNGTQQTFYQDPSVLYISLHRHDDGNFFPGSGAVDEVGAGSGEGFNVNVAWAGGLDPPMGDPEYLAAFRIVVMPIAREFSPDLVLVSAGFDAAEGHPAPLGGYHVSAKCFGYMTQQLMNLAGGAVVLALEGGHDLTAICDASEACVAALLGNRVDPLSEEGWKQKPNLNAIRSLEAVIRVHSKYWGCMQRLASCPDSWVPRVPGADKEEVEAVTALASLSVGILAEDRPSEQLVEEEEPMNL

[3] = system: H1975 (non-small cell lung adenocarcinoma); assay: MTT cancer cell growth inhibition; type: cell-based; settings: MTT, 72 hours incubation, H1975 cells, read-out: GI50 H1975
In short: (§1)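 Tumour cells in 10% FBS-supplemented DMEM or RPMI 1640 are plated at 1500 per well, dosed next day with compound (10^−5 through 10^−10 M, final) and kept 72 h. MTT is added for 4 h; dissolved formazan is measured at 570 nm and GI50 determined.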

[4] = system: HCC827 (human non-small cell lung cancer cells); assay: MTT cancer cell growth inhibition; type: cell-based; settings: MTT, 72 hours incubation, HCC827 cells, read-out: GI50 HCC827
In short: as §1

[5] = system: HT1080 (human fibrosarcoma cells); assay: MTT cancer cell growth inhibition; type: cell-based; settings: MTT
In short: as §1

[6] = system: Hela (human cervical cancer cells); assay: MTT cancer cell growth inhibition; type: cell-based; settings: MTT
In short: as §1

[7] = system: K562 (human leukemia cells); assay: MTT cancer cell growth inhibition; type: cell-based; settings: MTT, 72 hours incubation, K562 cells, read-out: GI50 K562
In short: as §1

[8] = system: KBM-5 (human chronic myelogenous leukemia); assay: MTT cancer cell growth inhibition; type: cell-based; settings: MTT, 72 hours incubation, KBM-5 cells, read-out: GI50 KBM-5
In short: as §1

[9] = system: KBM5-T315I (human chronic myelogenous leukemia); assay: MTT cancer cell growth inhibition; type: cell-based; settings: MTT, 72 hours incubation, KBM5-T315I cells, read-out: GI50 KBM5-T315I
In short: as §1

[10] = system: MDA-MB-231 (breast cancer cells); assay: MTT cancer cell growth inhibition; type: cell-based
In short: as §1

[11] = system: N-87 (human gastric cancer cells); assay: MTT cancer cell growth inhibition; type: cell-based; settings: MTT, 72 hours incubation, N-87 cells, read-out: GI50 N-87
In short: as §1

[12] = system: SGC-7901 (human gastric cancer cells); assay: MTT cancer cell growth inhibition; type: cell-based; settings: MTT, 72 hours incubation, SGC-7901 cells, read-out: GI50 SGC-7901
In short: as §1

[13] = target: T2, HDAC11 (Homo sapiens, UniProt Q96DB2); assay: HDAC biochemical activity measurement (fluorescent substrate deacetylation);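 note: HDAC11 enzyme acting on an acetyl-lysine fluorogenic substrate, then a developer frees the fluorophore, read at excitation 360 nm and emission 460 nm, IC50 over a compound dilution series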
T2 sequence (Q96DB2 1-347): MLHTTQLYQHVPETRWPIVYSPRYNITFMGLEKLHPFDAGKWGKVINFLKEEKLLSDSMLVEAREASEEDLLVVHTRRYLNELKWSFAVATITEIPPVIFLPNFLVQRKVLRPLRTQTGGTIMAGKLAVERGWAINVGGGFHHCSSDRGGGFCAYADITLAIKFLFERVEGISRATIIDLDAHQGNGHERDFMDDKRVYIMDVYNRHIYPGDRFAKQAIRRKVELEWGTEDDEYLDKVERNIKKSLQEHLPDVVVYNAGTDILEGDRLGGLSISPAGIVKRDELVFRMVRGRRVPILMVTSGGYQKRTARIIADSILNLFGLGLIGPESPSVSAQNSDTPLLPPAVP

[14] = Homo sapiens, HT-1080, 72 h, HT1080 cells, 72 hours incubation, read-out: GI50 HT1
[15] = Homo sapiens, HeLa, 72 h, Hela cells, 72 hours incubation, read-out: GI50 Hela
[16] = Homo sapiens, MDA-MB-231, 72 h, read-out: GI50 MDA-MB-231, MTT, 72 hours incubation, MDA-MB-231 cells
[17] = HT1080 cells, 72 hours incubation, read-out: GI50 HT1
[18] = Hela cells, 72 hours incubation, read-out: GI50 Hela
[19] = read-out: GI50 MDA-MB-231, MTT, 72 hours incubation, MDA-MB-231 cells
[20] = read-out: IC50 HDAC11, HDAC11, 37° C. 30 minutes
[21] = Homo sapiens, HT-1080, 72 h, 72 hours incubation, read-out: GI50 HT1
[22] = Homo sapiens, HeLa, 72 h, 72 hours incubation, read-out: GI50 Hela

Chain of HDAC2 (Q92769 whole entry, species assumed): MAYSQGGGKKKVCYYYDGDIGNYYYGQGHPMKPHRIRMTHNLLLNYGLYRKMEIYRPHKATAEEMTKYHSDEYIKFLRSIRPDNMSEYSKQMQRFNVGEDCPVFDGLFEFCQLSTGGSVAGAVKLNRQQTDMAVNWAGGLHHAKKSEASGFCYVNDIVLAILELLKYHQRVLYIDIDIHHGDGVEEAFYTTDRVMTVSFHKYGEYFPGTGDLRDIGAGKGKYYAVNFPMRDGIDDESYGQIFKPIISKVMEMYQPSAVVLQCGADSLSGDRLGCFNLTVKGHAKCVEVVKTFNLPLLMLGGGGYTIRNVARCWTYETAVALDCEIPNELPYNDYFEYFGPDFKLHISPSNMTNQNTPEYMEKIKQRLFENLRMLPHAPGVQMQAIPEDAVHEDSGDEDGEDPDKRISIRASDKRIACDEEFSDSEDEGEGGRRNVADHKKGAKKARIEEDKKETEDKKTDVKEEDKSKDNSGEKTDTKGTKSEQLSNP

Row | SMILES | IC50 [1] | IC50 HDAC7 [2] | GI50 ([3]; Homo sapiens, NCI-H1975, 72 h) | GI50 ([4]; Homo sapiens, HCC827, 72 h) | GI50 [5, 14] | GI50 [6, 15] | GI50 ([7]; Homo sapiens, K562, 72 h) | GI50 ([8]; Homo sapiens, KBM5, 72 h) | GI50 ([9]; Homo sapiens, 72 h) | GI50 [10, 16] | GI50 ([11]; Homo sapiens, 72 h) | GI50 ([12]; Homo sapiens, SGC-7901, 72 h) | IC50 [13] | IC50 [13, 20] | GI50 [5, 21] | GI50 [6, 22] | further results
1 | C/C=C1\NC(=O)c2cc(SCCC)cc(n2)CNC(=O)C[C@@H](/C=C/CCSC(=O)CCCCCCC)OC(=O)[C@H](CC)NC1=O [Compound 175] | 0.032 µM | no activity | 0.042 µM | 0.013 µM | 0.05 µM | 0.01 µM | 0.039 µM | 0.042 µM | 0.047 µM | 0.029 µM | 0.049 µM | 0.062 µM | 0.055 µM | – | – | – | –
2 | C/C=C1\NC(=O)c2nc(cc(SC)n2)CNC(=O)C[C@@H](/C=C/CCSC(C)=O)OC(=O)[C@H](C(C)C)NC1=O [Compound 216] | 0.033 µM | no activity | – | – | – | – | – | – | – | – | – | – | – | 0.081 µM | – | – | GI50 [3]: 0.087 µM; GI50 [4]: 0.059 µM; GI50 [5, 17]: 0.05 µM; GI50 [6, 18]: 0.07 µM; GI50 [7]: 0.056 µM; GI50 [8]: 0.038 µM; GI50 [9]: 0.036 µM; GI50 [10, 19]: 0.062 µM; GI50 [11]: 0.037 µM; GI50 [12]: 0.038 µM
3 | C/C=C1\NC(=O)c2ccc(F)c(n2)CNC(=O)C[C@@H](/C=C/CCSC(=O)CCCCCCC)OC(=O)[C@H](Cc2ccccc2)NC1=O [Example 71] | 0.029 µM | no activity | 0.051 µM | 0.084 µM | – | – | 0.063 µM | 0.073 µM | 0.028 µM | 0.029 µM | 0.055 µM | 0.035 µM | 0.096 µM | – | 0.08 µM | 0.07 µM | –
4 | C/C=C1\NC(=O)c2cccc(n2)CNC(=O)C[C@@H](/C=C/CCSC(=O)CCCCCCC)OC(=O)[C@H](CCSC)NC1=O [Compound 240] | 0.021 µM | no activity | 0.056 µM | 0.066 µM | 0.01 µM | 0.07 µM | 0.047 µM | 0.071 µM | 0.083 µM | 0.037 µM | 0.096 µM | 0.024 µM | 0.056 µM | – | – | – | GI50 ([5]; Homo sapiens, HT-1080, 72 h, 72 hours, present invention, read-out: GI50 HT1080, a): 0.033 µM; GI50 ([6]; Homo sapiens, HeLa, 72 h, 72 hours, present invention, read-out: GI50 Hela, a): 0.018 µM
5 | C/C=C1\NC(=O)c2cccc(n2)NC(=O)C[C@@H](/C=C/CCSC(C)=O)OC(=O)[C@H](C(C)C)NC1=O [Example 22] | 0.054 µM | no activity | 0.041 µM | 0.059 µM | – | – | 0.034 µM | 0.072 µM | 0.026 µM | 0.092 µM | 0.039 µM | 0.053 µM | 0.097 µM | – | 0.05 µM | 0.39 µM | –
6 | C/C=C1\NC(=O)c2nc(ccc2SC)CNC(=O)C[C@@H](/C=C/CCSC(=O)CCCCCCC)OC(=O)[C@H](C(C)C)NC1=O [Compound 147] | 0.041 µM | no activity | 0.026 µM | 0.028 µM | 0.08 µM | 0.05 µM | 0.037 µM | 0.023 µM | 0.026 µM | 0.078 µM | 0.083 µM | 0.045 µM | 0.086 µM | – | – | – | –
7 | C/C=C1\NC(=O)c2ncc(SC)c(n2)CNC(=O)C[C@@H](/C=C/CCSC(C)=O)OC(=O)[C@H](C(C)C)NC1=O [Compound 217] | 0.043 µM | no activity | – | – | – | – | – | – | – | – | – | – | – | 0.093 µM | – | – | GI50 [3]: 0.043 µM; GI50 [4]: 0.029 µM; GI50 [5, 17]: 0.02 µM; GI50 [6, 18]: 0.01 µM; GI50 [7]: 0.062 µM; GI50 [8]: 0.041 µM; GI50 [9]: 0.083 µM; GI50 [10, 19]: 0.019 µM; GI50 [11]: 0.057 µM; GI50 [12]: 0.028 µM
8 | C/C=C1\NC(=O)c2cc(F)cc(n2)CNC(=O)C[C@@H](/C=C/CCSC(=O)CC)OC(=O)[C@H](C(C)C)NC1=O [Compound 46] | 0.041 µM | no activity | 0.037 µM | 0.052 µM | – | – | 0.035 µM | 0.091 µM | 0.047 µM | 0.035 µM | 0.043 µM | 0.057 µM | – | 0.082 µM | 0.05 µM | 0.09 µM | –
9 | C/C=C1\NC(=O)c2cc(F)cc(n2)CNC(=O)C[C@@H](/C=C/CCSC(=O)CCCC)OC(=O)[C@H](C(C)C)NC1=O [Compound 40] | 0.053 µM | no activity | 0.043 µM | 0.074 µM | – | – | 0.041 µM | 0.079 µM | 0.055 µM | 0.035 µM | 0.071 µM | 0.045 µM | – | 0.096 µM | 0.07 µM | 0.07 µM | –
10 | C/C=C1\NC(=O)c2cccc(n2)CNC(=O)C[C@@H](/C=C/CCSC(C)=O)OC(=O)[C@H](C)NC1=O [Compound 12] | 0.054 µM | no activity | 0.041 µM | 0.037 µM | – | – | 0.024 µM | 0.072 µM | 0.031 µM | 0.084 µM | 0.028 µM | 0.036 µM | – | 0.091 µM | 0.06 µM | 0.05 µM | –
